Laboratory results as given in patent US8603437B2, “Methods for tumor diagnosis and therapy” (President and Fellows of Harvard College, priority 2000, dated 2013).

Legend:
[1] = Chemical nature of radioactivity in blood (stability), TLC and autoradiography of blood samples; format: in vivo, mice; conditions: blood samples from first 40 min, ethanol supernatant, TLC; single spot with same Rf as 127I-labeled Compound A
Description: The plates were run in acetonitrile-water (1.5:2) and autoradiographed.

[2] = Biodistribution in normal mice after i.v. injection; format: in vivo; conditions: for affinity / avidity for normal tissues: 1 hour and 24 hours; for injected dose remaining in the body by 24 hours: ~5 μCi/100 μl
Method: Mice (n=30) were injected i.v. with the radiopharmaceutical (˜5 μCi/100 μl), the animals were killed at 1 hour (n=15) and 24 hours (n=15), and the radioactivity associated with blood, tissues, and organs was determined.
The biodistribution of ^125I-labeled Compound B was also examined in various tissues in normal mice. […] However, by 24 hours (FIG. 5), all tissues and organs (with the exception of minimal activity in the thyroid) were virtually void of radioactivity (<4% of the injected dose remained in the body by 24 hours).

[3] = system: alkaline phosphatase (ALP)
Method: The animals were killed 1 hour later and the radioactivity in the forelimbs was measured.

[4] = Retention of radioactivity in forelimb after s.c. injection, and 24 hour biodistribution; format: in vivo, mice
Method: […] […] The animals were killed after 1 hour, 24 hours, and 48 hours, the radioactivity associated with the forelimbs was measured, and the percentage of radioactivity remaining was calculated (at the 24 hour time point, the biodistribution of radioactivity in various tissues and organs was also determined).

[5] = system: alkaline phosphatase (ALP); conditions: ~10 μCi/100 μl 0.1 M Tris pH 7.2, 5 units ALP; only with active enzyme, not heat-inactivated ALP
[6] = mouse, in vivo, iv
[7] = Blood clearance after i.v. injection in mice; conditions: bled over 1 hour, blood radioactivity
Solubility observations = format: physicochemical

Row | Compound | stability in blood: chemical nature of radioactivity [1] | dehalogenation (thyroid activity) [2] | affinity / avidity for normal tissues [2] | injected dose remaining in the body by 24 hours [2] | radioactive content within forelimbs pre-injected with ALP ([3]; ALP 50-400 units/10 μl s.c., 20 μCi i.v. five minutes later, killed 1 hour later) | uptake in forelimbs pre-injected with heat-inactivated ALP ([3]; heat-inactivated ALP s.c., i.v. prodrug, 1 hour) | fraction seeped out of the s.c. pocket by 24 hours ([4]; s.c. left forelimb, 5 μCi/5 μl saline followed by 5 μl DMSO) | conversion to 125I-labeled Compound B [5] | blood clearance of radioactivity [6] | T1/2β [7] [min] | radioactivity in all tissues examined at 1 hour ([2]; 1 hour) [% ID/g] | localization of escaped radioactivity in normal tissues ([4]; biodistribution 24 hours after s.c. injection) | change in forelimb radioactivity between 24 hours and 48 hours ([4]; s.c. forelimb) | injected activity remaining at the injection site at 24 hours ([4]; s.c. right forelimb, 5 μl DMSO solution followed by 5 μl saline) [%] | solubility in DMSO (Solubility observations; 100 μl DMSO) | behaviour on adding water to the DMSO solution (Solubility observations; 100 μl water added to 100 μl DMSO)
1 | N.O=c1[nH]c(-c2ccccc2OP(=O)(O)O)nc2ccc(I)cc12 [^125-I labeled Compound A, Ammonium 2-(2′-Phosphoryloxyphenyl)-6-iodo-4-(3H)-quinazolinone] | no evidence of free iodine | minimal dehalogenation | low affinity to normal tissues | < 20 % of the injected dose | increased with enzyme dose and plateaued at the highest concentrations | no increase in uptake | greater than 98% | complete conversion | rapid biphasic blood clearance | 51.1 ± 6.8 |  |  |  |  |  | 
2 | O=c1[nH]c(-c2ccccc2O)nc2ccc(I)cc12 [^125-I labeled Compound B, 2-(2′-Hydroxyphenyl)-6-iodo-4-(3H)-quinazolinone] |  |  | no avidity for any tissue | < 4 % of the injected dose |  |  |  |  |  |  | < 15 | does not localize in any normal tissues | no change | 71±5 | completely soluble | visible precipitate forms immediately
